“Also recorded” adds a separate entry of the source. Values belong to the molecule of their own block, whether it stands above or below them. d = 2'-deoxy (DNA); m = 2'-O-methyl
Assays:
[1] = system: A549 cells; test: Growth inhibition by antisense oligos, A549; assay type: cell-based, human; settings: 50 nM, 48 hour, vs cells treated with lipofectin
Procedure: (§1) For all ex vivo oligo treatment, human A549 human […] carcinoma cells were seeded in 10 cm tissue culture dishes one day prior to oligonucleotide treatment. The cell lines were obtained from the American Type Culture Collection (ATCC) (Manassas, Va.) and were grown under the recommended culture conditions. Before the addition of the oligonucleotides, cells were washed with PBS (phosphate buffered saline). Next, lipofectin transfection reagent (GIBCO BRL Mississauga, Ontario, Calif.), at a concentration of 6.25 μg/ ml, was added to serum free OPTIMEM medium (GIBCO BRL, Rockville, Md.), which was then added to the cells. The oligonucleotides were added directly to the cells (i.e., one oligonucleotide per plate of cells). Mismatched oligonucleotides were used as controls. The same concentration of oligonucleotide (e.g., 50 nM) was used per plate of cells for each oligonucleotide tested.
(§2) In order to determine the effect of HDAC ODNs on cell growth inhibition and cell death through apoptosis, A549, T24, DuI45, HCT116 cells (ATCC, Manassas, Va.), or HMEC cells (BioWhittaker, Walkersville, Md.) were treated with HDAC ODNs as previously described.
(§3) For the cell growth inhibition analysis, human cancer or normal cells were treated with 50 nM of paired AS or MM oligos directed against human HDAC-1, HDAC-7 or HDAC-8for up to 96 hours. Cell numbers were counted every day by trypan blue exclusion. Percentage of inhibition was calculated as (100 - AS cell numbers/control cell numbers)%.

[2] = system: Du145 cells; test: Growth inhibition by antisense oligos, Du145; assay type: cell-based, human; settings: 50 nM, 48 hour, vs cells treated with lipofectin
Procedure: as §1, §2, §3

[3] = system: human HDAC-7 mRNA; test: HDAC-7 mRNA expression in A549 cells, Northern blot; assay type: cell-based; settings: for HDAC-7 RNA expression, initial screen: 100 nM; for HDAC-7 RNA expression, initial screen / HDAC-7 mRNA expression, dose response (FIG. 1): 24 hours; for HDAC-7 mRNA expression, dose response (FIG. 1): 25 or 50 nM
Procedure: (§4) To identify antisense oligodeoxynucleotide (ODN) capable of inhibiting HDAC-7 expression in human cancer cells, eighteen phosphorothioate ODNs containing sequences complementary to the 5′ or 3′ UTR of the human […] (GenBank Accession No. AF239243) were initially screened in A549 cells at 100 nM. Cells were harvested after 24 hours of treatment, and HDAC-7 RNA expression was analyzed by Northern blot analysis. […] Total RNAs were harvested and were analyzed by Northern Blot. GAPDH expression was analyzed to indicate total RNA loading in each lane.
(§5) In order to determine the dose response of HDAC7 antisense inhibitors to reduce HDAC7 message at the mRNA level, Human A549 cells were treated with 25 or 50 nM of antisense (AS1 and AS2) oligos directed against human HDAC-7 or the corresponding mismatch of AS1 (MM1) oligo or an universal mismatch (UMM) for 24 hours. […] The time dependence of HDAC7 antisense inhibitors on blocking HDAC7 gene expression at the mRNA level was analyzed by treating A549 cells with 50 nM AS1 or MM1 oligos. […] Similarly, A549 cells were treated with 25 nM or 50 nM of AS1 or AS2 oligos directed against human HDAC-8 or its MM oligo for AS2 (MM2) for 24 hours. AS-2 oligo against human HDAC8 at 50 nM was also used to treat A549 cells for 24 or 48 hours.
as §1
(§6) Cells were harvested, and total RNAs were analyzed by Northern blot analysis. Briefly, total RNA was extracted using RNeasy miniprep columns (QIAGEN Canada, Mississauga, Ontario). Ten to twenty […] of total RNA was run on a formaldehyde-containing 1% agarose gel with 0.5 M sodium phosphate (pH 7.0) as the buffer system. RNAs were then transferred to nitrocellulose membranes and hybridized with the indicated radiolabeled DNA probes. Autoradiography was performed using conventional procedures.

[4] = system: p21 protein; test: p21 protein expression in A549 cells; assay type: cell-based, human
[5] = system: human HDAC-7 protein; test: HDAC-7 protein expression in A549 cells, SDS-PAGE and antibody probing; assay type: cell-based; settings: 25 or 50 nM, 48 hours (time course 24 or 48 hours)
Procedure: In order to determine whether treatment with HDAC ODNs would inhibit HDAC protein expression, human A549 cancer cells were treated with 25 or 50 nM of paired antisense or its mismatch oligos directed against human HDAC-7 for 48 hours. ODN treatment conditions were as previously described.
Cells were lysed in buffer containing 1% Triton X-100, 0.5% sodium deoxycholate, 5 mM EDTA, 25 mM Tris-HCl, pH 7.5, plus protease inhibitors. Total protein was quantified by the protein assay reagent from Bio-Rad (Hercules, Calif.). 100 ug of total protein was analyzed by SDS-PAGE. Next, total protein was transferred onto a PVDF membrane and probed with HDAC-7-specific primary antibodies.

[6] = system: human HDAC-8 mRNA; test: HDAC-8 mRNA expression in A549 cells, Northern blot; assay type: cell-based; settings: 24 hours
Procedure: as §4, with “antisense oligodeoxynucleotides” for “antisense oligodeoxynucleotide”, “inhibiting HDAC-8” for “inhibiting HDAC-7”, “cells, fourteen” for “cells, eighteen”, “No. AF230097)” for “No. AF239243)”, “and HDAC-8” for “and HDAC-7”
as §5, §1, §6

[7] = molecular target: T1, HDAC-8 (Homo sapiens, UniProt Q9BY41); test: Enzyme inhibitory activity, HD8; assay type: biochemical; settings: read-out: IC50 HD 8
T1 sequence (Q9BY41 1-377): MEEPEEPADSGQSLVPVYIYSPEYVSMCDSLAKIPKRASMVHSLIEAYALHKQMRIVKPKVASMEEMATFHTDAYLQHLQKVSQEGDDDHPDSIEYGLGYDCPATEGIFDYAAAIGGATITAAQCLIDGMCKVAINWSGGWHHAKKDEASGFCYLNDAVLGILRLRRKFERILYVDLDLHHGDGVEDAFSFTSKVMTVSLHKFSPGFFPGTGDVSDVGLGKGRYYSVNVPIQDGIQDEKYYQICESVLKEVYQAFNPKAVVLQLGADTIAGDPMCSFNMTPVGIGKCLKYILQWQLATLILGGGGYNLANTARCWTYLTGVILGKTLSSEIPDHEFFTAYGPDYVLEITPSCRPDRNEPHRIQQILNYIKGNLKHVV

[8] = molecular target: HDAC-4 (Homo sapiens, UniProt P56524); test: Enzyme inhibitory activity, HD4; assay type: biochemical
[9] = system: colon cancer cells HCT116; test: MTT assay, HCT116; assay type: cell-based, human; settings: 72 hours; read-out: IC50 HCT 116 (MTT)
Procedure: Effects of HDAC isotype-specific small molecule inhibitors on growth inhibition of various human cancer cells (from ATCC) in vitro were determined by MTT assays. Briefly, cells seeded in 96-well plates were incubated for 72 hours at 37° C. in a 5% CO2 incubator. MTT (Sigma) was added at a final concentration of 0.5 mg/ml and incubated with the cells for 4 hours before an equal volume of solubilization buffer (50% N,N-dimethylformamide, 20% SDS, pH 4.7) was added onto cultured cells. After overnight incubation, solubilized dye was quantified by colorimetric reading at […] using a reference at 630 nM. OD values were converted to cell numbers according to a standard growth curve of the relevant cell line. The concentration which reduces cell numbers to 50% of those of DMSO-treated cells is determined as MTT IC50. In Table 4, IC50s of several HDAC7 or HDAC8 inhibitors in MTT assays in various human cancer cell lines were listed. They include colon cancer cells HCT116 and SW48, lung cancer cells A549 and H446, breast cancer cells MCF-7 and MDAmb231, a prostate cancer cell line Du145 and a bladder cancer cell line T24.

[10] = molecular target: HDAC-1 (Homo sapiens, UniProt Q13547); test: Enzyme inhibitory activity, HD1; assay type: biochemical; settings: read-out: IC50 HD 1
Chain of HDAC-1 (Q13547 whole entry): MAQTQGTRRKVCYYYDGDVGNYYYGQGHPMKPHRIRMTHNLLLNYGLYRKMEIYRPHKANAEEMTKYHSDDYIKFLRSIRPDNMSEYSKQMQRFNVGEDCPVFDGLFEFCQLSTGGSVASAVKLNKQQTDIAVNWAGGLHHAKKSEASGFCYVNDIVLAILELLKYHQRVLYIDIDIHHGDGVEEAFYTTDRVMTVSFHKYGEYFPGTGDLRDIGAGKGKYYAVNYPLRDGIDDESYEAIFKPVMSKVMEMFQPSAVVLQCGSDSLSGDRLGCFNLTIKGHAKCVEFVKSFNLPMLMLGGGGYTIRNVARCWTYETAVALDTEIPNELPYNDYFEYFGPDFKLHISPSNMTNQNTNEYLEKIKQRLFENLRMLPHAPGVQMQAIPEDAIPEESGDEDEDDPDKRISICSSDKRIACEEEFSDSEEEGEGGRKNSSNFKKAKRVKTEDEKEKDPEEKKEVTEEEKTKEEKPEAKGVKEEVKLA

Chain of HDAC-4 (P56524 whole entry): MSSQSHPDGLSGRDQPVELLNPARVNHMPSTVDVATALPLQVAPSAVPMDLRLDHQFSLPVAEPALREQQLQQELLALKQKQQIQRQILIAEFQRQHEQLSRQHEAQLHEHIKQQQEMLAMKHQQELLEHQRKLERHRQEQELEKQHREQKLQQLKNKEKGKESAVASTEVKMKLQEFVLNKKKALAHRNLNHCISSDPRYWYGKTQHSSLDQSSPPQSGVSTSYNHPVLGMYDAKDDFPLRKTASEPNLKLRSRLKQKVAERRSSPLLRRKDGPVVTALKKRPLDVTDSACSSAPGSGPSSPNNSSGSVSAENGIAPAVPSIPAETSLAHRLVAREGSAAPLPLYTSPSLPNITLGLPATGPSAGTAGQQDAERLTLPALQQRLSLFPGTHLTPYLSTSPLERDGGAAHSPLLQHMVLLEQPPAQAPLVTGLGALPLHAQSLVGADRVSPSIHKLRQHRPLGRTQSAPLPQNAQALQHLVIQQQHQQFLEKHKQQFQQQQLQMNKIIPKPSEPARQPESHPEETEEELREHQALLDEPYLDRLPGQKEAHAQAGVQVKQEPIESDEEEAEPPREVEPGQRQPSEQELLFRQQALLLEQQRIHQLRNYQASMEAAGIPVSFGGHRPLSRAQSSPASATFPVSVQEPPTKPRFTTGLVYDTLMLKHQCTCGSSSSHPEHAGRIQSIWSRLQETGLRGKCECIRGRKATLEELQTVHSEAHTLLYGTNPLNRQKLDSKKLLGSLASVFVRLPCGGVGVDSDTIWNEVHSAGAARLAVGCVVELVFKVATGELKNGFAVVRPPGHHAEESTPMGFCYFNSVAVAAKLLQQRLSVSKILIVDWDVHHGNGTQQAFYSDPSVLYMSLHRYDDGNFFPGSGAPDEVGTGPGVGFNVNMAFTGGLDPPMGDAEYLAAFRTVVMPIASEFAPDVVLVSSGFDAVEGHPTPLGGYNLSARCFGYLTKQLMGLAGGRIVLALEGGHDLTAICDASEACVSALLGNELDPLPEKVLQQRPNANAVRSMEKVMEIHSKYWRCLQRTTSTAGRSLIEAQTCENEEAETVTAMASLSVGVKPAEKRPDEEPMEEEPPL

Molecule: 5′-CAGGCTCACTTGACAAUGGC-3′ (sugars from the 5' end m4 d12 m4, all phosphorothioate, methylation of C not given here) [HD7 AS1, antisense oligo, Human HDAC7 5′-UTR]
- Growth Inhibition A549 [1]: + (“+” means >35% inhibition of cell growth by antisense oligos (50 nM, 48 hour) compared to that of cells treated with lipofectin)
- Growth Inhibition Du145 [2]: + (“+” means >35% inhibition of cell growth by antisense oligos (50 nM, 48 hour) compared to that of cells treated with lipofectin)
- HDAC-7 mRNA expression, time course (FIG. 3) ([3]; 50 nM): significantly block gene expression of human HDAC7 at the mRNA level by 24 hours
- HDAC-7 RNA expression, initial screen [3]: good antisense activities
- HDAC-7 mRNA expression, dose response (FIG. 1) ([3]; listed as HDAC7 AS1): can inhibit human HDAC7 expression at the mRNA level; also recorded: inhibited in a dose-dependent manner
- p21 protein expression (FIG. 2) [4]: induced
- HDAC-7 protein expression (FIG. 2, FIG. 4) [5]: inhibited

Molecule: 5′-CGCUTTCCTTGTCATTGACA-3′ (sugars from the 5' end m4 d12 m4, all phosphorothioate, methylation of C not given here) [HD3 AS1, antisense oligo, Human HDAC3 3′-UTR]
- Growth Inhibition Du145 [2]: + (“+” means >35% inhibition of cell growth by antisense oligos (50 nM, 48 hour) compared to that of cells treated with lipofectin)

Molecule: 5′-CUCCGGCTCCTCCATCUUCC-3′ (sugars from the 5' end m4 d12 m4, all phosphorothioate, methylation of C not given here) [HDAC8 AS1, antisense oligo, Human HDAC8 5′-UTR]
- HDAC-8 mRNA expression, dose response (FIG. 5) ([6]; 25 nM or 50 nM): inhibited in a dose-dependent manner
- HDAC-8 RNA expression, initial screen ([6]; 100 nM): good antisense activities

Molecule: 5′-CUUCAGCCAGGATGCCCACA-3′ (sugars from the 5' end m4 d12 m4, all phosphorothioate, methylation of C not given here) [HDAC7 AS2, antisense oligo, Human HDAC7 3′-UTR]
- HDAC-7 RNA expression, initial screen [3]: good antisense activities
- HDAC-7 mRNA expression, dose response (FIG. 1) [3]: can inhibit human HDAC7 expression at the mRNA level; also recorded: inhibited in a dose-dependent manner
- p21 protein expression (FIG. 2) [4]: induced
- HDAC-7 protein expression (FIG. 2, FIG. 4) [5]: inhibited

Molecule: 5′-GCAGCGGCGGCAGCACCUCC-3′ (sugars from the 5' end m4 d12 m4, all phosphorothioate, methylation of C not given here) [HD5 AS1, antisense oligo, Human HDAC5 5′-UTR]
- Growth Inhibition Du145 [2]: + (“+” means >35% inhibition of cell growth by antisense oligos (50 nM, 48 hour) compared to that of cells treated with lipofectin)

- IC50 [7]: 400 nM
- IC50 [8]: > 10000 nM
- IC50 [9]: 6000 nM
- IC50 [10]: 2000 nM
Molecule: CC(C=CC(=O)NO)=CC(C)Cc1ccc(N(C)C)cc1 (stereo not shown) [Compound 4, N-Hydroxy-4,6-dimethyl-7-[(4-N,N-dimethylaminophenyl)]-2,4-heptadienamide]

— patent US20040072770A1, “Methods for specifically inhibiting histone deacetylase-7 and 8” (priority 2002, published 2004)
